From patent USRE42890E1, “Furazanobenzimidazoles” (Basilea Pharmaceutica AG, priority 2003, dated 2011)
Where two headings read alike, the source gives them in different places.

Columns and labels:
MRC5 = experiment: MTS proliferation assay, MRC5; format: cell-based; details: MRC5, 72 h incubation, read-out: MTS proliferation assay IC 50 MRC5
Summary of the method: (§1)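 Seed cells in complete RPMI-1640 medium and allow 24 h attachment. Add compounds to final 10 μM, 3 μM, 1 μM or 0.3 μM and incubate 72 h at 37° C. Add MTS, incubate 3 h more, then measure absorption at 492 nm.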

HT1080 = experiment: MTS proliferation assay, HT1080; format: cell-based, human; details: HT1080, 72 h incubation, read-out: MTS proliferation assay IC 50 HT1080
Summary of the method: (§2)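 Human lines, EGFP-transfected or not, grow in RPMI-1640 plus 5% or 10% FCS and 2-mercaptoethanol. They receive test compound for 72 h at final concentrations of 10, 3, 1 and 0.3 μM, and MTS conversion is measured at 492 nm.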

Jurkat = experiment: MTS proliferation assay, Jurkat; format: cell-based, human; details: 72 h incubation, read-out: MTS proliferation assay IC 50 Jurkat
Summary of the method: as §2

Jily = experiment: MTS proliferation assay, Jily; format: cell-based; details: 72 h incubation, read-out: MTS proliferation assay IC 50 Jily
Summary of the method: as §1

[1] = test system: adherent cells or suspension cells; experiment: Hoechst 33342 nuclear staining (fraction of apoptotic nuclei); format: cell-based; design: key: 0 relating to no activity; 1 relating to weak activity comprising less than 70% of the cells; score 2 relating to strong activity comprising more than 70% of the cells
HeLa = experiment: MTS proliferation assay, HeLa; format: cell-based, human; details: 72 h incubation, read-out: MTS proliferation assay IC 50 HeLa
Summary of the method: as §2

Compound	IC50 (MRC5) [nM]	IC50 (HT1080) [nM]	IC50 (Jurkat) [nM]	IC50 (Jily) [nM]	Hoechst 33342 nuclear staining score ([1]; H460, conc 0.01 μm)	Hoechst 33342 nuclear staining score ([1]; H460, conc 0.1 μm)	Hoechst 33342 nuclear staining score ([1]; H460, conc 1 μm)	Hoechst 33342 nuclear staining score ([1]; HeLa, conc 0.01 μm)	Hoechst 33342 nuclear staining score ([1]; HeLa, conc 0.1 μm)	Hoechst 33342 nuclear staining score ([1]; HeLa, conc 1 μm)	Hoechst 33342 nuclear staining score ([1]; Jily, conc 0.01 μm)	Hoechst 33342 nuclear staining score ([1]; Jily, conc 0.1 μm)	Hoechst 33342 nuclear staining score ([1]; Jily, conc 1 μm)	Hoechst 33342 nuclear staining score ([1]; Jurkat, conc 0.01 μm)	Hoechst 33342 nuclear staining score ([1]; Jurkat, conc 0.1 μm)	Hoechst 33342 nuclear staining score ([1]; Jurkat, conc 1 μm)	Hoechst 33342 nuclear staining score ([1]; MRC5, conc 0.01 μm)	Hoechst 33342 nuclear staining score ([1]; MRC5, conc 0.1 μm)	Hoechst 33342 nuclear staining score ([1]; MRC5, conc 1 μm)	Hoechst 33342 nuclear staining score ([1]; PBLs, conc 0.01 μm)	further results
Nc1ccc(C(=O)Cn2c(-c3nonc3N)nc3ccccc32)cn1 [Example 78]	< 10	< 10	< 10	< 10	2 (score 2 relating to strong activity comprising more than 70% of the cells)	2 (score 2 relating to strong activity comprising more than 70% of the cells)	2 (score 2 relating to strong activity comprising more than 70% of the cells)	2 (score 2 relating to strong activity comprising more than 70% of the cells)	2 (score 2 relating to strong activity comprising more than 70% of the cells)	2 (score 2 relating to strong activity comprising more than 70% of the cells)	2 (score 2 relating to strong activity comprising more than 70% of the cells)	2 (score 2 relating to strong activity comprising more than 70% of the cells)	2 (score 2 relating to strong activity comprising more than 70% of the cells)	2 (score 2 relating to strong activity comprising more than 70% of the cells)	2 (score 2 relating to strong activity comprising more than 70% of the cells)	2 (score 2 relating to strong activity comprising more than 70% of the cells)	1 (1 relating to weak activity comprising less than 70% of the cells)	2 (score 2 relating to strong activity comprising more than 70% of the cells)	2 (score 2 relating to strong activity comprising more than 70% of the cells)	0	Hoechst 33342 nuclear staining score ([1]; PBLs, conc 0.1 μm): 0; Hoechst 33342 nuclear staining score ([1]; PBLs, conc 1 μm): 0; IC50 (HeLa): < 10 nM
Nc1nonc1-c1nc2ccccc2n1COc1ccc(F)cc1 [Example 8, 4-[1-(4-Fluorophenoxymethyl)-1H-benzimidazol-2-yl]-furazan-3-ylamine]				100 to 1000	0	0	0	0	0	1 (1 relating to weak activity comprising less than 70% of the cells)	0	0	0	0	0	1 (1 relating to weak activity comprising less than 70% of the cells)	0	0	0	0	IC50 (MRC5; Homo sapiens): 100 to 1000 nM; IC50 (HT1080; Homo sapiens, HT-1080): 100 to 1000 nM; IC50 (Jurkat; Homo sapiens): 100 to 1000 nM; Hoechst 33342 nuclear staining score ([1]; PBLs, conc 0.1 μm): 0; Hoechst 33342 nuclear staining score ([1]; PBLs, conc 1 μm): 0; IC50 (HeLa; Homo sapiens): 100 to 1000 nM
Nc1nonc1-c1nc2ccccc2n1COc1ccc([N+](=O)[O-])cc1 [Example 98]	> 1000	> 1000	100 to 1000	100 to 1000	0	0	0	0	0	0	0	0	2 (score 2 relating to strong activity comprising more than 70% of the cells)	0	0	2 (score 2 relating to strong activity comprising more than 70% of the cells)	0	0	0	0	Hoechst 33342 nuclear staining score ([1]; PBLs, conc 0.1 μm): 0; Hoechst 33342 nuclear staining score ([1]; PBLs, conc 1 μm): 0; IC50 (HeLa): > 1000 nM
CC(C)n1c(-c2nonc2N)nc2ccccc21 [A, reference compound]	> 1000	> 1000	> 1000	> 1000																	Hoechst 33342 nuclear staining score ([1]; H460, conc 3 μm): 0; Hoechst 33342 nuclear staining score ([1]; H460, conc 10 μm): 0; Hoechst 33342 nuclear staining score ([1]; H460, conc 30 μm): 0; Hoechst 33342 nuclear staining score ([1]; HeLa, conc 3 μm): 0; Hoechst 33342 nuclear staining score ([1]; HeLa, conc 10 μm): 0; Hoechst 33342 nuclear staining score ([1]; HeLa, conc 30 μm): 0; Hoechst 33342 nuclear staining score ([1]; Jily, conc 3 μm): 0; Hoechst 33342 nuclear staining score ([1]; Jily, conc 10 μm): 0; Hoechst 33342 nuclear staining score ([1]; Jily, conc 30 μm): 0; Hoechst 33342 nuclear staining score ([1]; Jurkat, conc 3 μm): 0; Hoechst 33342 nuclear staining score ([1]; Jurkat, conc 10 μm): 0; Hoechst 33342 nuclear staining score ([1]; Jurkat, conc 30 μm): 0; Hoechst 33342 nuclear staining score ([1]; MRC5, conc 3 μm): 0; Hoechst 33342 nuclear staining score ([1]; MRC5, conc 10 μm): 0; Hoechst 33342 nuclear staining score ([1]; MRC5, conc 30 μm): 0; Hoechst 33342 nuclear staining score ([1]; PBLs, conc 3 μm): 0; Hoechst 33342 nuclear staining score ([1]; PBLs, conc 10 μm): 0; Hoechst 33342 nuclear staining score ([1]; PBLs, conc 30 μm): 0; IC50 (HeLa): > 1000 nM
Nc1nonc1-c1nc2ccccc2n1CC(=O)c1ccc2ccccc2c1 [Example 42]	100 to 1000	10 to 100	10 to 100	10 to 100	0	2 (score 2 relating to strong activity comprising more than 70% of the cells)	2 (score 2 relating to strong activity comprising more than 70% of the cells)	0	1 (1 relating to weak activity comprising less than 70% of the cells)	2 (score 2 relating to strong activity comprising more than 70% of the cells)	0	2 (score 2 relating to strong activity comprising more than 70% of the cells)	2 (score 2 relating to strong activity comprising more than 70% of the cells)	0	2 (score 2 relating to strong activity comprising more than 70% of the cells)	2 (score 2 relating to strong activity comprising more than 70% of the cells)	0	2 (score 2 relating to strong activity comprising more than 70% of the cells)	2 (score 2 relating to strong activity comprising more than 70% of the cells)	0	Hoechst 33342 nuclear staining score ([1]; PBLs, conc 0.1 μm): 0; Hoechst 33342 nuclear staining score ([1]; PBLs, conc 1 μm): 0; IC50 (HeLa): 10 to 100 nM
Nc1ccc(C(=O)Cn2c(-c3nonc3N)nc3ccccc32)cc1[N+](=O)[O-] [Example 65]	< 10	< 10	< 10	< 10	2 (score 2 relating to strong activity comprising more than 70% of the cells)	2 (score 2 relating to strong activity comprising more than 70% of the cells)	2 (score 2 relating to strong activity comprising more than 70% of the cells)	0	2 (score 2 relating to strong activity comprising more than 70% of the cells)	2 (score 2 relating to strong activity comprising more than 70% of the cells)	2 (score 2 relating to strong activity comprising more than 70% of the cells)	2 (score 2 relating to strong activity comprising more than 70% of the cells)	2 (score 2 relating to strong activity comprising more than 70% of the cells)	2 (score 2 relating to strong activity comprising more than 70% of the cells)	2 (score 2 relating to strong activity comprising more than 70% of the cells)	2 (score 2 relating to strong activity comprising more than 70% of the cells)	0	2 (score 2 relating to strong activity comprising more than 70% of the cells)	2 (score 2 relating to strong activity comprising more than 70% of the cells)	0	Hoechst 33342 nuclear staining score ([1]; PBLs, conc 0.1 μm): 0; Hoechst 33342 nuclear staining score ([1]; PBLs, conc 1 μm): 0; IC50 (HeLa): 10 to 100 nM
